Measurements as given in patent US11977067B2 (Radius Health, Inc., priority 2017, dated 2024).
Several values for one entry are separate records, joined by “and”; a condition that tells them apart may be missing. Identical values can stand only once.

Key:
PTH receptors = target: T1, PTH receptors (Homo sapiens, UniProt Q03431); test: qualified cell base potency assay for functional PTH activity (cAMP production); assay type: cell-based
T1 sequence (Q03431 27-593): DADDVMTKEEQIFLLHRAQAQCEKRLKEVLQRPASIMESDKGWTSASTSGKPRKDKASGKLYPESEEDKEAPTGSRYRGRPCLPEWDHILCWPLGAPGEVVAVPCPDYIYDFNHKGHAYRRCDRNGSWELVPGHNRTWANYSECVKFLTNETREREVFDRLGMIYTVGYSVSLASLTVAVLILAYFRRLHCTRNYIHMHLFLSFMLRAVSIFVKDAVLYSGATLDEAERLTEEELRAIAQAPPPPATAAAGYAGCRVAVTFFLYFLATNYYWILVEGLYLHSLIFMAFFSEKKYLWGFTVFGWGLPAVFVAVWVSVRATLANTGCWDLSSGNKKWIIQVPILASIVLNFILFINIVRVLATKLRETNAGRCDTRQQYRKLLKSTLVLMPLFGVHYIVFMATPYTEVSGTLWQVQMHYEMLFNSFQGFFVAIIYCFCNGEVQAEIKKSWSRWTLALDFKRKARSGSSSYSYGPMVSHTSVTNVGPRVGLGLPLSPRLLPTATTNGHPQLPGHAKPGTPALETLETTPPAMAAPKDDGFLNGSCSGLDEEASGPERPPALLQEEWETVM

[1] = (beta-Asp10) abaloparatide levels in formulated registration batches at different storage conditions; assay type: physicochemical
[2] = rate constants and Arrhenius analysis of (beta-Asp10) abaloparatide formation; assay type: physicochemical
Method: Rate constants at each temperature are tabulated in the top row of Table 18.
An Arrhenius plot was constructed (FIG. 8) by plotting the natural logarithm of the rate constants (k) for three storage temperatures, against the reciprocals of those temperatures in Kelvin. […] The activation energy, Ea, derived with high accuracy from the slope of a linear regression best fit of the Arrhenius plot is Ea=91,670 J/mol. […] For example, the observed rate constant at 5° C., Kobs=0.0655%/month agrees well with the predicted value, Kcalc=0.0644%/month, with only a 0.0011% absolute difference and a 1.7% relative difference.
The amount of b-Asp10 in the API must be determined with rigor and set accordingly to achieve the desired stability profile after pre-specified storage conditions. Previously, this could not be done as the methods used were insufficient for its identification and quantification. Therefore, not only has a new degradant been discovered but the methods described herein have allowed the formation rate equation to be determined and thus allow for setting its specification in the API when coupled with a desired storage stability profile. […] Similarly, the API, once formulated into cartridges is tested for purity including evaluation for (b-Asp10) right after the cartridge is formulated. This is also an important evaluation point for (b-Asp10) because the formulation itself requires time to complete mixing and filling prior to refrigeration.

CC[C@H](C)[C@H](NC(=O)[C@H](CO)NC(=O)[C@H](CCCCN)NC(=O)CNC(=O)[C@H](CCCCN)NC(=O)C[C@H](NC(=O)[C@H](Cc1c[nH]cn1)NC(=O)[C@H](CC(C)C)NC(=O)[C@H](CC(C)C)NC(=O)[C@H](CCC(N)=O)NC(=O)[C@H](Cc1c[nH]cn1)NC(=O)[C@H](CCC(=O)O)NC(=O)[C@H](CO)NC(=O)[C@@H](NC(=O)[C@H](C)N)C(C)C)C(=O)O)C(=O)N[C@@H](CCC(N)=O)C(=O)N[C@@H](CC(=O)O)C(=O)N[C@@H](CC(C)C)C(=O)N[C@@H](CCCNC(=N)N)C(=O)N[C@@H](CCCNC(=N)N)C(=O)N[C@@H](CCCNC(=N)N)C(=O)N[C@@H](CCC(=O)O)C(=O)N[C@@H](CC(C)C)C(=O)N[C@@H](CC(C)C)C(=O)N[C@@H](CCC(=O)O)C(=O)N[C@@H](CCCCN)C(=O)N[C@@H](CC(C)C)C(=O)N[C@@H](CC(C)C)C(=O)NC(C)(C)C(=O)N[C@@H](CCCCN)C(=O)N[C@@H](CC(C)C)C(=O)N[C@@H](Cc1c[nH]cn1)C(=O)N[C@H](C(=O)N[C@@H](C)C(N)=O)[C@@H](C)O [(beta-Asp10) abaloparatide, [b-Asp^10, Glu^22,25, Leu^23,28,31, Aib^29, Lys^26,30]hPTHrP(1-34)NH2)]
agonist on PTH receptors (PTH receptors): active per se as an agonist
EC50 (PTH receptors; production of cAMP as a measure of bioactivity): 0.832 nM
(beta-Asp10) abaloparatide level (mean) in formulated samples ([1]; 5° C. long term storage condition, 0 M): 0.3%
(beta-Asp10) abaloparatide level (mean) in formulated samples ([1]; 5° C. long term storage condition, 3 M): 0.5%
(beta-Asp10) abaloparatide level (mean) in formulated samples ([1]; 5° C. long term storage condition, 6 M): 0.76%
(beta-Asp10) abaloparatide level (mean) in formulated samples ([1]; 5° C. long term storage condition, 9 M): 0.96%
(beta-Asp10) abaloparatide level (mean) in formulated samples ([1]; 5° C. long term storage condition, 12 M): 1.03%
(beta-Asp10) abaloparatide level (mean) in formulated samples ([1]; 5° C. long term storage condition, 18 M): 1.66%
(beta-Asp10) abaloparatide level (mean) in formulated samples ([1]; 5° C. long term storage condition, 24 M): 1.93%
(beta-Asp10) abaloparatide level (mean) in formulated samples ([1]; 25° C. accelerated condition, 0 M): 0.3%
(beta-Asp10) abaloparatide level (mean) in formulated samples ([1]; 25° C. accelerated condition, 1 M): 1.26%
(beta-Asp10) abaloparatide level (mean) in formulated samples ([1]; 25° C. accelerated condition, 3 M): 3.26%
(beta-Asp10) abaloparatide level (mean) in formulated samples ([1]; 25° C. accelerated condition, 6 M): 6.3%
(beta-Asp10) abaloparatide level (mean) in formulated samples ([1]; 25° C. accelerated condition, 9 M): 9.43%
(beta-Asp10) abaloparatide level (mean) in formulated samples ([1]; 25° C. accelerated condition, 12 M): 11.96%
(beta-Asp10) abaloparatide level (mean) in formulated samples ([1]; 25° C. accelerated condition, 18 M): 16.73%
(beta-Asp10) abaloparatide level (mean) in formulated samples ([1]; 25° C. accelerated condition, 24 M): 20.73%
(beta-Asp10) abaloparatide level (mean) in formulated samples ([1]; 40° C. stress condition, 0 M): 0.3%
(beta-Asp10) abaloparatide level (mean) in formulated samples ([1]; 40° C. stress condition, 1 M): 7.10%
(beta-Asp10) abaloparatide level (mean) in formulated samples ([1]; 40° C. stress condition, 3 M): 18.76%
(beta-Asp10) abaloparatide level (mean) in formulated samples ([1]; 40° C. stress condition, 6 M): 32.9%
Difference (%) between kobs and Kcalc (relative difference) ([2]; 5° C.): 2.3%
Kcalc (%/month), rate constant calculated from activation energy ([2]; 5° C.): 0.0644 %/month and 0.0674 %/month
absolute difference between Kobs and Kcalc ([2]; 5° C.): 0.0011%
kobs (%/month), observed rate constant for formation of (beta-Asp10) abaloparatide ([2]; 5° C.): 0.0655 %/month and 0.0690 %/month
Difference (%) between kobs and Kcalc ([2]; 25° C.): −5.6%
Kcalc (%/month), rate constant calculated from activation energy ([2]; 25° C.): 0.938 %/month
kobs (%/month), observed rate constant for formation of (beta-Asp10) abaloparatide ([2]; 25° C.): 0.993 %/month
Difference (%) between kobs and Kcalc ([2]; 40° C.): 3.5%
Kcalc (%/month), rate constant calculated from activation energy ([2]; 40° C.): 5.19 %/month
kobs (%/month), observed rate constant for formation of (beta-Asp10) abaloparatide ([2]; 40° C.): 5.38 %/month
activation energy, Ea ([2]; slope of linear regression of Arrhenius plot, 5° C. to 40° C.): 91,670 J/mol

CC[C@H](C)[C@H](NC(=O)[C@H](CO)NC(=O)[C@H](CCCCN)NC(=O)CNC(=O)[C@H](CCCCN)NC(=O)[C@H](CC(=O)O)NC(=O)[C@H](Cc1c[nH]cn1)NC(=O)[C@H](CC(C)C)NC(=O)[C@H](CC(C)C)NC(=O)[C@H](CCC(N)=O)NC(=O)[C@H](Cc1c[nH]cn1)NC(=O)[C@H](CCC(=O)O)NC(=O)[C@H](CO)NC(=O)[C@@H](NC(=O)[C@H](C)N)C(C)C)C(=O)N[C@@H](CCC(N)=O)C(=O)N[C@@H](CC(=O)O)C(=O)N[C@@H](CC(C)C)C(=O)N[C@@H](CCCNC(=N)N)C(=O)N[C@@H](CCCNC(=N)N)C(=O)N[C@@H](CCCNC(=N)N)C(=O)N[C@@H](CCC(=O)O)C(=O)N[C@@H](CC(C)C)C(=O)N[C@@H](CC(C)C)C(=O)N[C@@H](CCC(=O)O)C(=O)N[C@@H](CCCCN)C(=O)N[C@@H](CC(C)C)C(=O)N[C@@H](CC(C)C)C(=O)NC(C)(C)C(=O)N[C@@H](CCCCN)C(=O)N[C@@H](CC(C)C)C(=O)N[C@@H](Cc1c[nH]cn1)C(=O)N[C@H](C(=O)N[C@@H](C)C(N)=O)[C@@H](C)O [abaloparatide, [Glu^22,25, Leu^23,28,31, Aib^29, Lys^26,30]hPTHrP(1-34)NH2)]
kinetic order of isomerization of abaloparatide to (beta-Asp10) isomer ([2]; formulated drug product): zero order kinetics
